pIC50: −log10 of the molar value.
Columns and labels:
CDK4/Cyclin D1 [1] = molecular target: T1, CDK4/Cyclin D1 (Homo sapiens (Human), UniProt P11802); assay: CDK4/Cyclin D1 Mobility Shift Assay (MSA); type: biochemical; settings: 0.2 mM ATP, read-out: CDK4/ CyclinD1 MSA IC50
Excerpt: CDK4/Cyclin D1 Mobility Shift Assay (MSA)
The purpose CDK4/Cyclin D1 assay is to evaluate the inhibition (% inhibition and IC50 values) in the presence of small molecule inhibitors by using a fluorescence based microfluidic mobility shift assay. CDK4/Cyclin D1 catalyzes the production of ADP from ATP that accompanies the phosphoryl transfer to the substrate peptide 5-FAM-Dyrktide (5-FAM-RRRFRPASPLRGPPK) (Perkin Elmer Peptide 34). The mobility shift assay (MSA) electrophoretically separates the fluorescently labelled peptides (substrate and phosphorylated product) following the kinase reaction. Both substrate and product are measured, and the ratio of these values is used to generate % conversion of substrate to product by the LabChip EZ Reader. Typical reaction solutions contained 2% DMSO (+/−inhibitor), 10 mM MgCl2, 1 mM EGTA, 0.05% BSA, 2 mM DTT, 0.2 mM ATP, 0.01% Brig-35, 1.5 uM 5-FAM-Dyrktide, 2.5 nM CDK4/Cyclin D1 in 50 mM HEPES buffer at pH 7.5. The reaction was initiated with the addition of substrate solution, following a 30-minute pre-incubation of enzyme and inhibitor at 22° C. in the reaction mix. The reaction was stopped after 180 minutes by the addition of 75 uL of 500 mM EDTA and measured on a Perkin Elmer EZ reader instrument. IC50 determinations were made from a plot of the fractional velocity as a function of inhibitor concentration fit to the 4 parameters IC50 equation.

CDK1/Cyclin B1 = CDK1/Cyclin B1 (Homo sapiens (Human), UniProt P06493); assay: CDK1/Cyclin B1 ADP-Glo Kinase Assay; type: biochemical; settings: 80 uM ATP
Summary of the method: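 CDK1/cyclin B1 (4.917 nM) preincubated 30 min with inhibitor (2% DMSO), then 80 µM ATP (Km 78.6 µM) and 0.75 µM substrate added; 90 min, room temperature, pH 7.5. ADP measured by ADP-Glo luminescence; IC50 from 4-parameter fit.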

[2] = molecular target: CDK2/Cyclin E1 full length (Homo sapiens (Human), UniProt P24941); assay: CDK2/Cyclin E1 Full Length ADP-Glo Kinase Assay; type: biochemical; settings: 20 uM ATP, read-out: CDK2/ CyclinE1 IC50
Summary of the method: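 Full-length human CDK2/Cyclin E1 (0.328 nM) pre-incubated 30 min with inhibitor at RT, then reacted 90 min at RT with 20 uM ATP (Km 64.78 uM) and 0.75 uM substrate in pH 7.5 HEPES, 2% DMSO. ADP measured by ADP-Glo luminescence; IC50 from 4-parameter fit of fractional velocity.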

CDK6/Cyclin D3 = CDK6/Cyclin D3 (Homo sapiens (Human), UniProt Q00534); assay: CDK6/Cyclin D3 ADP-Glo Kinase Assay; type: biochemical; settings: 100 uM ATP, read-out: CDK6/ CyclinD3 IC50
Summary of the method: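 Recombinant human CDK6/Cyclin D3 pre-incubated 30 min with inhibitor at room temperature, then reaction started with ATP/substrate and run 90 min at room temperature. ADP formed detected by ADP-Glo luminescence; IC50 from a 4-parameter fit of fractional velocity versus inhibitor concentration.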

MCF-7 cells = assay: Cell Growth Inhibition, MCF-7 (CellTiterGlo, 6 days); type: cell-based; settings: Homo sapiens, MCF7, 144 h; MCF-7, 6-day treatment, CellTiterGlo 2.0
Summary of the method: (§1)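 MCF-7 and OVCAR-3 cells (RPMI, 10% FBS) were seeded at 500 cells/well onto compound, typically 10–10,000 nM in half-log dilutions. Growth proceeded 6 days at 37 °C, then CellTiterGlo luminescence was read. % inhibition was taken versus control, and IC50 came from a four-parameter variable-slope fit.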

OVCAR-3 cells = assay: Cell Growth Inhibition, OVCAR-3 (CellTiterGlo, 6 days); type: cell-based; settings: Homo sapiens, 144 h; OVCAR-3, 6-day treatment, CellTiterGlo 2.0
Summary of the method: as §1

CDK4/Cyclin D1 [3] = molecular target: T1, CDK4/Cyclin D1; assay: CDK4/Cyclin D1 CHEF Assay (AQT0258 peptide); type: biochemical; settings: 200 uM ATP, read-out: CDK4/ CyclinD1 AQT IC50
Summary of the method: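 CDK4/Cyclin D1 (2.5 nM) phosphorylating 10 uM Sox-labelled peptide AQT0258 with 200 uM ATP (Km 195.2 uM), 10 mM MgCl2, 2% DMSO, 54 mM HEPES pH 7.5. Enzyme and inhibitor pre-incubated 30 min, reaction 3 hrs at 22° C.; CHEF fluorescence (ex 360/em 485 nm), IC50 from fractional velocity, 4-parameter fit.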

Sequence of CDK1/Cyclin B1 (P06493 whole entry): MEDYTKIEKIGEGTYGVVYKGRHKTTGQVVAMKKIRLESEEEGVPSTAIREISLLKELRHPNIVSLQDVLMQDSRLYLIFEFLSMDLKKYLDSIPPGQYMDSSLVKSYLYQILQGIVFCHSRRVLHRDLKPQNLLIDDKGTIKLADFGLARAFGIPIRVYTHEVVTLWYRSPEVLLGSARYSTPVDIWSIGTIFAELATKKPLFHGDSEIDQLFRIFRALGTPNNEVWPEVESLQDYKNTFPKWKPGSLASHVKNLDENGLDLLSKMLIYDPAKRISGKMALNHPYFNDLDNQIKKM
Sequence of CDK1/Cyclin B1 (P14635 whole entry partner): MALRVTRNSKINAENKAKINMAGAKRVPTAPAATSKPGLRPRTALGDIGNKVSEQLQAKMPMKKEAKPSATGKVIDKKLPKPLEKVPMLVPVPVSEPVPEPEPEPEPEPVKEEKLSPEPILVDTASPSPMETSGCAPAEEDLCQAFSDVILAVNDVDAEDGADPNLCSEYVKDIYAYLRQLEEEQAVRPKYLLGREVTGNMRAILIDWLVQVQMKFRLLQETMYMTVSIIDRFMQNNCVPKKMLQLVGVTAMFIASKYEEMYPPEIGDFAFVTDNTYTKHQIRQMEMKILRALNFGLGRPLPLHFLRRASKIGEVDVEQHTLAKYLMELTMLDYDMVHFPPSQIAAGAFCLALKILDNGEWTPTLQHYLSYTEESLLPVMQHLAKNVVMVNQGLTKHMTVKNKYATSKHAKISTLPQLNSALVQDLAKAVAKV
Sequence of CDK6/Cyclin D3 (Q00534 whole entry): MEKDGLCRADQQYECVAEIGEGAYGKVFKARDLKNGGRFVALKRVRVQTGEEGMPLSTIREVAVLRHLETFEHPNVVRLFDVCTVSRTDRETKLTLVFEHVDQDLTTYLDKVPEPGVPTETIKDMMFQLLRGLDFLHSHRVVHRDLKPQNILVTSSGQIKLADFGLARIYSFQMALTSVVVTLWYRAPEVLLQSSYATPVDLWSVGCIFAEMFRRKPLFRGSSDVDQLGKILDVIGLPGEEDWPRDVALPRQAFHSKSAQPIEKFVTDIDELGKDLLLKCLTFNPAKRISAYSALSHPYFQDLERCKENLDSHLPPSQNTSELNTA
Sequence of CDK6/Cyclin D3 (P30281 whole entry partner): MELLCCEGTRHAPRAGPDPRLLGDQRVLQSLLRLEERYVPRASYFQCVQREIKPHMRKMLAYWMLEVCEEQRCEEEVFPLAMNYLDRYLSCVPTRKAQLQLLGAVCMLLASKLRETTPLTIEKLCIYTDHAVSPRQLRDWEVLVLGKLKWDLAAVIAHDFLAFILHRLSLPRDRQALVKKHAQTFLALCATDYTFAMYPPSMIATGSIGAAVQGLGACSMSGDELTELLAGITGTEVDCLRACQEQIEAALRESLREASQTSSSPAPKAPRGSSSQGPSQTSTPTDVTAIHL
T1 sequence (P11802 whole entry): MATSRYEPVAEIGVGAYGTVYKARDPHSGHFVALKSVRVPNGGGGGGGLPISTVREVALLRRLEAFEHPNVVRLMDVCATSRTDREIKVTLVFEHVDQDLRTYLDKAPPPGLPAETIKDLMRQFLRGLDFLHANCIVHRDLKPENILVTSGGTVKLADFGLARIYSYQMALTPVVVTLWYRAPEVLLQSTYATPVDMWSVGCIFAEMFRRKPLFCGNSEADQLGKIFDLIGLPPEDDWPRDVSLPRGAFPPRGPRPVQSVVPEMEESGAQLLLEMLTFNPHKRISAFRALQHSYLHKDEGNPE
T1 sequence (P24385 whole entry partner): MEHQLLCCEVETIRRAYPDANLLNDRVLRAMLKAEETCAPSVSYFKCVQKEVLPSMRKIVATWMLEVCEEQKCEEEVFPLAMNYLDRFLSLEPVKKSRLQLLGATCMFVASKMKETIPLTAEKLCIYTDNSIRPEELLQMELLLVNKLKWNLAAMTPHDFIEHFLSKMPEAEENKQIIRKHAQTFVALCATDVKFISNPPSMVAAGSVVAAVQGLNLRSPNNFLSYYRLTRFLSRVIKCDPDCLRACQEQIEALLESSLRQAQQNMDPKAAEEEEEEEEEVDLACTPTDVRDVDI

Structure (SMILES)	pIC50 (CDK4/Cyclin D1 [1])	pIC50 (CDK1/Cyclin B1)	pIC50 [2]	pIC50 (CDK6/Cyclin D3)	pIC50 (MCF-7 cells)	pIC50 (OVCAR-3 cells)	pIC50 (CDK4/Cyclin D1 [3])
CS(=O)(=O)N1CCC(Nc2ncc3cccc(N4CCN(C5CC5)CC4)c3n2)CC1 [Example 13, 8-(4-cyclopropylpiperazin-1-yl)-N-(1-(methylsulfonyl)piperidin-4-yl)quinazolin-2-amine]	6.30 to 6.70	< 5.70	> 6.70	5.70 to 6.30			
CCN1CC2(C1)CN(c1ccc(Nc3ncc4cccc(N5CC6(C5)CC(F)(F)C6)c4n3)nc1)C2 [Example 49, 8-(6,6-difluoro-2-azaspiro[3.3]heptan-2-yl)-N-(5-(6-ethyl-2,6-diazaspiro[3.3]heptan-2-yl)pyridin-2-yl)quinazolin-2-amine]	> 6.70	< 5.70	< 5.70	6.30 to 6.70			
CS(=O)(=O)N1CCC(Nc2ncc3cccc(N4CCCC4)c3n2)CC1 [Example 2, N-(1-(methylsulfonyl)piperidin-4-yl)-8-(pyrrolidin-1-yl)quinazolin-2-amine]	> 6.70	5.70 to 6.30	> 6.70	> 6.70			
CCN(CC)C1CCN(c2cccc3cnc(NC4CCN(S(C)(=O)=O)CC4)nc23)CC1 [Example 20, 8-(4-(diethylamino)piperidin-1-yl)-N-(1-(methylsulfonyl)piperidin-4-yl)quinazolin-2-amine]	6.30 to 6.70	< 5.70	> 6.70	5.70 to 6.30			
CS(=O)(=O)N1CCC(Nc2ncc3cccc(N4CCN(S(C)(=O)=O)CC4)c3n2)CC1 [Example 12, 8-(4-(methylsulfonyl)piperazin-1-yl)-N-(1-(methylsulfonyl)piperidin-4-yl)quinazolin-2-amine]	6.30 to 6.70	< 5.70	6.30 to 6.70	5.70 to 6.30			
CS(=O)(=O)N1CCC(Nc2ncc3cccc(N4CC5CC(C4)O5)c3n2)CC1 [Example 30, 8-(6-oxa-3-azabicyclo[3.1.1]heptan-3-yl)-N-(1-(methylsulfonyl)piperidin-4-yl)quinazolin-2-amine]	> 6.70	5.70 to 6.30	> 6.70	6.30 to 6.70			
CS(=O)(=O)N1CCC(Nc2ncc3cccc(N4CCC5(COC5)C4)c3n2)CC1 [Example 22, N-(1-(methylsulfonyl)piperidin-4-yl)-8-(2-oxa-6-azaspiro[3.4]octan-6-yl)quinazolin-2-amine]	> 6.70	5.70 to 6.30	> 6.70	> 6.70			
CS(=O)(=O)N1CCC(Nc2ncc3cccc(N4CCC5(CCC(F)(F)C5)C4)c3n2)CC1 (centres unmarked) [Example 34, 8-(7,7-difluoro-2-azaspiro[4.4]nonan-2-yl)-N-(1-(methylsulfonyl)piperidin-4-yl)quinazolin-2-amine]	> 6.70	5.70 to 6.30	> 6.70	6.30 to 6.70			
CN1CC2(CC(n3cc(Nc4ncc5cc(C(F)F)cc(N6CCC(C#N)(C7CC7)C6)c5n4)cn3)C2)C1 (centres unmarked) [Example 60, 3-cyclopropyl-1-(6-(difluoromethyl)-2-((1-(2-methyl-2-azaspiro[3.3]heptan-6-yl)-1H-pyrazol-4-yl)amino)quinazolin-8-yl)pyrrolidine-3-carbonitrile]		5.70 to 6.30	6.30 to 6.70	> 6.70	5.70 to 6.30	5.70 to 6.30	> 6.70
O=S(=O)(C1CC1)N1CCC(Nc2ncc3cc(C(F)F)cc(N4CC5(CCNC5)C4)c3n2)CC1 [Example 74, N-(1-(cyclopropylsulfonyl)piperidin-4-yl)-6-(difluoromethyl)-8-(2,6-diazaspiro[3.4]octan-2-yl)quinazolin-2-amine]		> 6.70	> 6.70	> 6.70	6.30 to 6.70	6.30 to 6.70	> 6.70
CS(=O)(=O)N1Cc2ccc(Nc3ncc4cc(C(F)F)cc(N5CC6(C5)CN(C5CC5)C6)c4n3)cc2C1 [Example 72, 8-(6-cyclopropyl-2,6-diazaspiro[3.3]heptan-2-yl)-6-(difluoromethyl)-N-(2-(methylsulfonyl)isoindolin-5-yl)quinazolin-2-amine]		> 6.70	> 6.70	> 6.70	5.70 to 6.30	< 5.70	> 6.70

Source: patent US20240092761A1, “QUINAZOLINE COMPOUNDS AND METHODS OF USE” (IAMBIC THERAPEUTICS, INC., priority 2022, published 2024)
